# Assay results: US9339509B2, “Methods of use to orally and topically treat acne and other skin conditions by administering a 19-nor containing vitamin D analog with or without a retinoid” (Wisconsin Alumni Research Foundation, priority 2006, dated 2016)
# Test system: Rhino mouse
# Assay: Comedolytic effect of topical application to the Rhino mouse (comedone area)
# Format: in vivo
# Conditions: 70 vol % ethanol/30 vol % propylene glycol; for response vs control in vivo at 0.069 µmol/kg: dose 69 nmol/kg; for response vs control in vivo at 0.217 µmol/kg: dose 217 nmol/kg; for comedone area (FIG. 7, FIG. 10): 69 nmole/kgBW/day; for comedone area relative to vehicle-treated group (FIG. 8, 9, 10): 217 nmole/kgBW/day; for comedone area relative to vehicle-treated group (FIG. 11): 72 h after final dose
# Source text: Rhino mice were used to topically and orally test the compounds and compositions of the invention. The Rhino mouse is a well-established animal model used to study the comedolytic effects of anti-acne agents including retinoids. (See Boulcier M et al., Experimental Models in Skin Pharmacology, 1990, In Pharmacological Reviews 42:127-15). Mirshahpanah and Maibach, 2007, Cutaneous and Ocular Toxicology 26:195-202). The Rhino mouse model was used to study the therapeutic potential of 2-Methylene-19-nor-20(S)-1α-hydroxy-bishomopregnacalciferol (2MBisP), 19-Nor-26,27-dimethylene-20(S)-2-methylene-1α,25-dihydroxyvitamin D3 (CAGE-3), NEL, 24R-2MD2, Vit-III (17-20E), 2MPregna, 2MP, 20R-2MbisP, 2MTrisP, FF-44, FF-55, HPBS, VD-03 and atRA.
# Animals and dose administration. Rhino mice 6-10 weeks old were dosed via the oral and/or topical route. In the majority of studies, the mice were dosed daily. In one topical study, the efficacy of daily versus intermittent (Monday/Wednesday/Friday) dosing was compared. The mice were weighed three times per week and doses were adjusted weekly based on body weight. The topical formulations were applied to the back of the animal in a maximum volume of 110 μL. The topical formulations were made by mixing the APIs with a topical carrier comprising 70 vol % propylene glycol and 30 vol % ethanol or 30 vol % propylene glycol and 70 vol % ethanol, as indicated. The topical vehicle control was the vehicle carrier solution matched to the formulation containing API and vehicle carrier.
# The oral formulation was made by mixing the APIs with Wesson® soybean oil or NeoBee® oil. The oral dose was delivered to the back of the mouth of each mouse. Mice were sacrificed 4 hours after the final oral dose and 72 hours after the final topical dose. At sacrifice, the dorsal skin was collected for histological studies.
# Comedolytic effect. The extent of the comedolytic effect (i.e., efficacy) was assessed by measuring the average area of the comedones, whereby the smaller the area, the larger the effect. The comedone area was determined by histological analysis of tissue sections based on a method developed in our lab (see FIG. 2). Skin was fixed overnight in 4% paraformaldehyde at 4 deg. C. with gentle agitation and dehydrated the next day into 100% methanol. Samples were embedded in paraffin and a total of nine 10 micron sections 150 microns apart were prepared from each Rhino mouse. Five of the nine sections were digitally imaged (6× magnification) for comedone analysis using Metamorph Imaging Software (trace function). The perimeter of each comedone on the images taken from the 5 sections was then traced using a Wacom Intuos 3 Graphics Tablet interfaced with the software. The number of pixels comprising the area of each individual comedone was obtained and transferred to an Excel spreadsheet, and the mean number of pixels per comedone was obtained for each Rhino mouse. For comedones that were completely healed (area=0) a pixel value approaching 0 (<10) was entered into the spreadsheet. The individual comedone area average for each mouse was then used to calculate the treatment group mean. Results in the figures are expressed in terms of mean±standard error of the mean.
# Preparation of topical formulations containing 2MBisP, CAGE-3, 24R-2MD2, VitIII (17-20E), NEL, VD-03, 2MPregna, 2MP, 20R-2MBisP, 2MTrisP, FF-44, FF-55, and HPBS. Separate concentrated ethanolic stocks of 2MBisP, CAGE-3, 24R-2MD2, VitIII (17-20E) and NEL were diluted to a final concentration containing 70 vol % propylene glycol and 30 vol % ethanol or 30 vol % propylene glycol and 70 vol % ethanol as the excipient carrier system. The mixture was thoroughly mixed. The topical dosing formulation delivered the desired dosing amount of drug on a per kilogram body weight basis. A dose ranging from 100-110 μL in volume was administered to the back of the mouse. An average weight of 24 or 30 g/mouse was assumed in dose volume calculations. […]
# [1] = Mus musculus, 504 h, daily topical ca. 3 weeks, mean ± SEM, read-out: Comedone Area (% Vehicle)
# [2] = topical 217 nmole/kgBW daily (total of 22 doses)
# [3] = topical 217 nmole/kgBW intermittently Monday, Wednesday, Friday (total of 10 doses)
compound,measurement,setting,value
"C=C1[C@H](O)CC(=C/C=C2\CCC[C@@H]3C([C@@H](C)CCCC(C)(C)O)CC[C@@H]23)C[C@H]1O (stereo partly drawn) [VD-03, 2-methylene-18,19-dinor-(20S)-1α,25-dihydroxyvitamin D3]",response vs control in vivo at 0.00062 µmol/kg,"Mus musculus, 504 h, daily topical ca. 3 weeks, dose 0.62 nmol/kg, mean ± SEM, read-out: Comedone Area (% Vehicle)",90 ± 14%
"C=C1[C@H](O)CC(=C/C=C2\CCC[C@@]3(C)C2CCC3[C@H](C)CC(F)F)C[C@H]1O (stereo partly drawn) [FF-44, 2-methylene-(20R)-23,23-difluoro-1α-hydroxy-19-nor-bishomopregnacalciferol]",response vs control in vivo at 0.069 µmol/kg,[1],104 ± 20%
same,response vs control in vivo at 0.217 µmol/kg,[1],47 ± 12%
same,"comedone area (FIG. 7, FIG. 10)",daily topical 3 weeks,insignificant effect
same,"comedone area relative to vehicle-treated group (FIG. 8, 9, 10)",daily topical 3 weeks,significant reduction in comedone area
same,comedone area relative to vehicle-treated group (FIG. 11),[2],significant reduction in comedone area
same,comedone area relative to vehicle-treated group (FIG. 11),[3],significant reduction in comedone area
"C=C1[C@H](O)CC(=C/C=C2\CCC[C@@]3(C)C2CCC3[C@H](C)CC)C[C@H]1O (stereo partly drawn) [20R-2MBisP, (20R)-1α-hydroxy-2-methylene-19-nor-bishomopregnacalciferol]",response vs control in vivo at 0.217 µmol/kg,[1],136 ± 17%
same,response vs control in vivo at 0.694 µmol/kg,"Mus musculus, 504 h, daily topical ca. 3 weeks, dose 694 nmol/kg, mean ± SEM, read-out: Comedone Area (% Vehicle)",45 ± 6%
same,response vs control in vivo at 2.187 µmol/kg,"Mus musculus, 504 h, daily topical ca. 3 weeks, dose 2187 nmol/kg, mean ± SEM, read-out: Comedone Area (% Vehicle)",17 ± 3%
same,"comedone area relative to vehicle-treated group (FIG. 8, 9, 10)",daily topical 3 weeks,insignificant effect
same,comedone area relative to vehicle-treated group (FIG. 8),"daily topical 3 weeks, 694 nmole/kgBW/day",significant reduction
"C=C1[C@H](O)CC(=C/C=C2\CCC[C@@]3(C)C2CCC3[C@@H](C)CCC)C[C@H]1O (stereo partly drawn) [2MTrisP, 2-methylene-(20S)-19-nor-1α-hydroxy-trishomopregnacalciferol]",response vs control in vivo at 0.217 µmol/kg,[1],66 ± 9%
same,"comedone area relative to vehicle-treated group (FIG. 8, 9, 10)",daily topical 3 weeks,significant reduction in comedone area
"C=C1/C(=C\C=C2/CCC[C@]3(C)[C@@H]([C@H](C)CCCC(C)(C)O)CC[C@@H]23)C[C@@H](O)C[C@@H]1O [1,25(OH)2D3, 1,25-DIHYDROXYVITAMIN D3, reference compound]",response vs control in vivo at 0.006 µmol/kg,"Mus musculus, 504 h, daily topical ca. 3 weeks, dose 6.0 nmol/kg, mean ± SEM, read-out: Comedone Area (% Vehicle)",187 ± 30%
"2-(3′hydroxypropyl-1′,2′-idene)-19,23,24-trinor-(20S)-1α-hydroxyvitamin D3 [HPBS]",Comedone Area (% Vehicle),"daily topical ca. 3 weeks, dose 217 to 122 nmol/kg (changed on day 3 or day 10), mean ± SEM",74 ± 10 % Vehicle
"C=C1[C@H](O)CC(=C/C=C2\CCCC3(C)C(CC)CCC23)C[C@H]1O (stereo partly drawn) [2MPregna, 2-methylene-19-nor-1α-hydroxy-pregnacalciferol]",response vs control in vivo at 0.217 µmol/kg,[1],63 ± 14%
same,"comedone area relative to vehicle-treated group (FIG. 8, 9, 10)",daily topical 3 weeks,significant reduction in comedone area
"C=C1[C@H](O)CC(=C/C=C2\CCC[C@@]3(C)C2CCC3[C@@H](C)CC(F)F)C[C@H]1O (stereo partly drawn) [FF-55, 2-methylene-(20S)-23,23-difluoro-1α-hydroxy-19-nor-bishomopregnancalciferol]",response vs control in vivo at 0.069 µmol/kg,[1],108 ± 35%
same,response vs control in vivo at 0.217 µmol/kg,[1],53 ± 8%
same,"comedone area (FIG. 7, FIG. 10)",daily topical 3 weeks,insignificant effect
same,"comedone area relative to vehicle-treated group (FIG. 8, 9, 10)",daily topical 3 weeks,significant reduction in comedone area
same,comedone area relative to vehicle-treated group (FIG. 11),[2],significant reduction in comedone area
same,comedone area relative to vehicle-treated group (FIG. 11),[3],significant reduction in comedone area
"C=C1[C@H](O)CC(=C/C=C2\CCCC3(C)C2CCC3C(C)C)C[C@H]1O (stereo partly drawn) [2MP, 1α-hydroxy-2-methylene-19-nor-homopregnacalciferol]",response vs control in vivo at 0.217 µmol/kg,[1],92 ± 20%
same,"comedone area relative to vehicle-treated group (FIG. 8, 9, 10)",daily topical 3 weeks,smaller reduction in comedone area
